Assay results published in article PMC8753592, “Long-acting capsid inhibitor protects macaques from repeat SHIV challenges” (Nature, 2021).
Values joined by “and” are separate entries in the source; they are usually repeats but may differ in a detail not shown here. Equal entries are not always repeated.

Legend:
[1] = Pilot pharmacokinetic study, single subcutaneous administration; details: male, Indian origin, rhesus monkey, in vivo; for concentration at 1 week: 1 week post dose; for concentration at 4 weeks: 4 weeks post dose; for concentration at 8 weeks: 8 weeks post dose; for concentration at 10 weeks: 10 weeks post dose
Experimental: All study protocols were reviewed and approved by the Covance Laboratories Institutional Animal Care and Use Committee (IACUC).
Rhesus plasma samples were stored frozen at −80 °C. For analysis, the samples were thawed, and a 50-µl aliquot of each sample was treated with 200 µl acetonitrile containing a generic internal small-molecule standard. After precipitation of the protein component, a 100-µl aliquot of the supernatant was transferred to a clean 96-well plate and was mixed with 200 µl water. A 20-μl aliquot of the above solution was then injected into a Q-Exactive high-resolution mass spectrometer (Thermo Scientific) with electrospray ionization in positive mode. Quantification was performed with a Thermo Scientific Xcalibur 4.0.27.19 using accurate masses (<5 parts per million mass error; [M + H]^+ of 958.1853 for GC-CA1 and 758.3270 for the internal standard, respectively)[22],[23]. […] Pharmacokinetic parameters, including the area under the plasma concentration–time curve from time 0 to the last quantifiable time point (AUClast), the area under the plasma concentration–time curve from time 0 to infinity (AUCinf), the maximum concentration (Cmax), the time to reach the observed peak plasma concentration (tmax) and the terminal half-life (t1/2), were determined by non-compartmental analysis using Phoenix WinNonlin 6.4 build 8.1.0.3530 software (Pharsight).

[2] = test system: SHIV envelope (Env) glycoprotein; test: Env (gp140) ELISA seroconversion in challenged animals; format: in vivo, rhesus macaques; details: for First viremia to seroconversion interval / Seroconversion timepoint: individual infected animals
Experimental: Rhesus serum binding antibody titres against gp140 trimers were determined by ELISA. Ninety-six-well Maxisorp ELISA plates (Thermo Fisher Scientific) were coated overnight with 100 μl per well of 1 μg ml^−1 mosaic M gp140 protein in PBS and were then blocked for 2 h with blocker casein in PBS (Thermo Scientific). Macaque sera were added in threefold serial dilutions and were incubated for 1 h at room temperature. The plates were washed three times with PBS containing 0.05% Tween-20 and were then incubated for 1 h with a 1:1,000 dilution of a horseradish peroxidase (HRP)-conjugated goat anti-human secondary antibody (Jackson ImmunoResearch Laboratories). The plates were then washed three times with the above wash buffer and were developed using SureBlue tetramethylbenzidine (TMB) microwell peroxidase (KPL). Development was stopped by the addition of a stop solution (KPL), and the plates were then analysed at 450 nm with a Versamax ELISA microplate reader (Molecular Devices) using Softmax Pro 6.5.1 software. The ELISA endpoint titres were defined as the highest reciprocal serum dilution that yielded an OD450 nm absorbance of >0.2. Seroconversion occurred when the OD450 nm absorbance was greater than or equal to three times the value obtained at week 0 and the endpoint titre was greater than the assay LOD, which was 1:25.

HIV-1 IIIb strain = test: High-density antiviral dose–response curves (Hill slope) against HIV-1 IIIb in MT-4 cells; format: cell-based
HIV-1 isolates = details: ref Yant et al, Nat.Med, 2019;[4]; read-out: EC50, human PBMCs, HIV-1 isolates; cited from earlier work
[3] = 100 mg/kg, Plasma GS-CA1 level, 100 mg/kg s.c., individual animals, unit inferred
[4] = 300 mg/kg, Plasma GS-CA1 level, 300 mg/kg s.c., individual animals, unit inferred

CC(C)(C#Cc1ccc(-c2ccc(Cl)c3c(NS(=O)(=O)C4CC4)nn(CC(F)F)c23)c([C@H](Cc2cc(F)cc(F)c2)NC(=O)Cn2nc(C(F)F)c3c2C(F)(F)[C@@H]2C[C@H]32)n1)S(C)(=O)=O [GS-CA1]
concentration at 1 week [1, 3]: 353 nM
concentration at 2 weeks ([1]; 100 mg/kg, Plasma GS-CA1 level, 100 mg/kg s.c., 2 weeks post dose, individual animals, unit inferred): 163 nM
concentration at 3 weeks ([1]; 100 mg/kg, Plasma GS-CA1 level, 100 mg/kg s.c., 3 weeks post dose, individual animals, unit inferred): 114 nM
concentration at 4 weeks [1, 3]: 138 nM
concentration at 5 weeks ([1]; 100 mg/kg, Plasma GS-CA1 level, 100 mg/kg s.c., 5 weeks post dose, individual animals, unit inferred): 93.4 nM
concentration at 6 weeks ([1]; 100 mg/kg, Plasma GS-CA1 level, 100 mg/kg s.c., 6 weeks post dose, individual animals, unit inferred): 84.9 nM
concentration at 8 weeks [1, 3]: 36.4 nM
concentration at 10 weeks [1, 3]: 40.7 nM
concentration at 12 weeks ([1]; 100 mg/kg, Plasma GS-CA1 level, 100 mg/kg s.c., 12 weeks post dose, individual animals, unit inferred): 18 nM
concentration at 0.006 weeks ([1]; 300 mg/kg, Plasma GS-CA1 level, 300 mg/kg s.c., 0.006 weeks post dose, individual animals, unit not given (Fig. 1b in nM)): 68.8 nM
concentration at 0.43 weeks ([1]; 300 mg/kg, Plasma GS-CA1 level, 300 mg/kg s.c., 0.43 weeks post dose, individual animals, unit inferred): 2000 nM
concentration at 0.57 weeks ([1]; 300 mg/kg, Plasma GS-CA1 level, 300 mg/kg s.c., 0.57 weeks post dose, individual animals, unit inferred): 1920 nM
concentration at 1 week [1, 4]: 1310 nM
concentration at 4 weeks [1, 4]: 338 nM
concentration at 8 weeks [1, 4]: 198 nM
concentration at 10 weeks [1, 4]: 109 nM
concentration at 14 weeks ([1]; 300 mg/kg, Plasma GS-CA1 level, 300 mg/kg s.c., 14 weeks post dose, individual animals, unit inferred): 43.8 nM
concentration at 7 day ([1]; plasma drug level, 100 and 300 mg/kg single s.c., by day 7): 400 to 1100 nM
AUC(0-inf) ([1]; sc, 100 mg/kg): 333 µM·h
F (based on AUCinf) ([1]; sc, 100 mg/kg): 92%
Tmax ([1]; sc, 100 mg/kg): 1.5 days
half-life ([1]; sc, 100 mg/kg): 25 days
AUC(0-t) ([1]; sc, 100 mg/kg, AUC0-24h): 19.3 µM·h
AUC(0-t) ([1]; sc, 100 mg/kg, AUC0-168h): 147 µM·h
AUC(0-t) ([1]; sc, 100 mg/kg, AUC0-336h): 198 µM·h
AUC(0-t) ([1]; sc, 100 mg/kg, AUC0-1008h): 279 µM·h
AUC(0-t) ([1]; sc, 100 mg/kg, AUC0-1344h): 298 µM·h
AUC(0-t) ([1]; sc, 100 mg/kg, AUC0-1680h): 310 µM·h
AUC(0-inf) ([1]; sc, 300 mg/kg): 1120 ± 126 µM·h
Cmax ([1]; sc, 300 mg/kg): 2710 ± 720 nM
F (based on AUCinf) ([1]; sc, 300 mg/kg): 104 ± 12%
Tmax ([1]; sc, 300 mg/kg): 2 ± 1 days
half-life ([1]; sc, 300 mg/kg): 23.2 days
AUC(0-t) ([1]; sc, 300 mg/kg, AUC0-24h): 25.2 ± 10.2 µM·h
AUC(0-t) ([1]; sc, 300 mg/kg, AUC0-336h): 434 ± 114 µM·h
AUC(0-t) ([1]; sc, 300 mg/kg, AUC0-1008h): 819 ± 77 µM·h
AUC(0-t) ([1]; sc, 300 mg/kg, AUC0-1344h): 936 ± 91 µM·h
AUC(0-t) ([1]; sc, 300 mg/kg, AUC0-1680h): 1010 ± 109 µM·h
First viremia to seroconversion interval ([2]; 150 mg/kg): 1 weeks and 4 weeks and 5 weeks
Seroconversion timepoint ([2]; 150 mg/kg): 17 study week and 20 study week and 18 study week and 16 study week and 19 study week and 21 study week
First viremia to seroconversion interval ([2]; 300 mg/kg): 1 weeks and 3 weeks
Seroconversion timepoint ([2]; 300 mg/kg): 18 study week and 20 study week
median time to seroconversion from the onset of viraemia ([2]; all infected GS-CA1-treated animals, range 1 to 5 weeks): 4 weeks
Hill slope (n) (HIV-1 IIIb strain): 3.03 ± 0.69 and 3.0 ± 0.7
EC50 (HIV-1 isolates): 0.13 nM
